According to patent publication US20240199558A1, “2,4,6-TRISUBSTITUTED 1,3,5-TRIAZINES AS MODULATORS OF CX3CR1” (ASTRAZENECA AB, priority 2022, published 2024):

Molecular target: CX3CR1 (Homo sapiens (Human), UniProt P49238)
Experiment: hCX3CR1 [3H]-AZD8797 competitive binding assay (filter)
Details: CHO-hCX3CR1 membranes, 2 nM [3H]-AZD8797
Outline: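 CHO-hCX3CR1 membranes (9 μg/well) were incubated 2 h at room temperature with 2 nM [3H]-AZD8797 and varying competitor concentrations. Buffer: 25 mM HEPES pH 7.4, 10 mM MgCl2, 1 mM CaCl2, 0.5% BSA, 1% DMSO. Bound ligand was collected by vacuum filtration, washed in ice-cold buffer with 500 mM NaCl, and counted by scintillation.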

CX3CR1, sequence (P49238 whole entry): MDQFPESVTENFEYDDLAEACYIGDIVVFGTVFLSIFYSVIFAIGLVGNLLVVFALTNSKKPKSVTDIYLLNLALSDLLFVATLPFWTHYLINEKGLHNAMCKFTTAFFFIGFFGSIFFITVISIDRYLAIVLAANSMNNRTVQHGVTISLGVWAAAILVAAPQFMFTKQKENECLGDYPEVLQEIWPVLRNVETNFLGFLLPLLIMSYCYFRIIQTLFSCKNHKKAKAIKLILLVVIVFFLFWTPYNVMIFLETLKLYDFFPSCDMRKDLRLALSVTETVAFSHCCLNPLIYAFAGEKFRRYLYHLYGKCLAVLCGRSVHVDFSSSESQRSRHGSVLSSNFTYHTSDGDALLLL

Row | SMILES | IC50 [µM]
1 | CC(C)C[C@H](CO)Nc1nc(CC(C)c2ccc(CCO)nc2)nc(NS(C)(=O)=O)n1 (stereo partly drawn) [Example 132, N-(4-(((R)-1-Hydroxy-4-methylpentan-2-yl)amino)-6-(2-(6-(2-hydroxyethyl)pyridin-3-yl)propyl)-1,3,5-triazin-2-yl)methanesulfonamide] | 0.264
2 | CCOc1ccc(C(C)Cc2nc(N[C@@H](CO)CC(C)C)nc(NS(C)(=O)=O)n2)cc1 (stereo partly drawn) [Example 123, N-(4-(2-(4-Ethoxyphenyl)propyl)-6-(((R)-1-hydroxy-4-methylpentan-2-yl)amino)-1,3,5-triazin-2-yl)methanesulfonamide] | 0.339
3 | CC(C)C[C@H](CO)Nc1nc(C[C@H](C)c2ccc(Cl)c(F)c2F)nc(NS(C)(=O)=O)n1 (single isomer, unassigned) [Example 33, N-(4-((S*)-2-(4-Chloro-2,3-difluorophenyl)propyl)-6-(((R)-1-hydroxy-4-methylpentan-2-yl)amino)-1,3,5-triazin-2-yl)methanesulfonamide] | 0.384
4 | CC(C)C[C@H](CO)Nc1nc(C[C@H](C)c2ccc(N)nc2)nc(NS(C)(=O)=O)n1 (single isomer, unassigned) [Example 50, N-(4-((S*)-2-(6-Aminopyridin-3-yl)propyl)-6-(((R)-1-hydroxy-4-methylpentan-2-yl)amino)-1,3,5-triazin-2-yl)methanesulfonamide] | 0.342
5 | CC(C)C[C@H](CO)Nc1nc(CC(C)c2cnc3c(c2)OCC(=O)N3C)nc(NS(C)(=O)=O)n1 (stereo partly drawn) [Example 125, N-(4-(((R)-1-Hydroxy-4-methylpentan-2-yl)amino)-6-(2-(4-methyl-3-oxo-3,4-dihydro-2H-pyrido[3,2-b][1,4]oxazin-7-yl)propyl)-1,3,5-triazin-2-yl)methanesulfonamide] | 0.085
6 | CC(C)C[C@H](CO)Nc1nc(CC(C)c2ccc(N)c(F)c2)nc(NS(C)(=O)=O)n1 (stereo partly drawn) [Example 136, N-(4-(2-(4-Amino-3-fluorophenyl)propyl)-6-(((R)-1-hydroxy-4-methylpentan-2-yl)amino)-1,3,5-triazin-2-yl)methanesulfonamide] | 0.016
7 | CC(C)C[C@H](CO)Nc1nc(CC(C)c2ccc(C#N)c(Cl)c2)nc(NS(C)(=O)=O)n1 (stereo partly drawn) [Example 169, N-(4-(2-(3-Chloro-4-cyanophenyl)propyl)-6-(((R)-1-hydroxy-4-methylpentan-2-yl)amino)-1,3,5-triazin-2-yl)methanesulfonamide] | 0.815
8 | CC(C)C[C@H](CO)Nc1nc(C[C@@H](C)c2ccnc(F)c2)nc(NS(C)(=O)=O)n1 (single isomer, unassigned) [Example 91, N-(4-((R*)-2-(2-Fluoropyridin-4-yl)propyl)-6-(((R)-1-hydroxy-4-methylpentan-2-yl)amino)-1,3,5-triazin-2-yl)methanesulfonamide] | 0.034
9 | CC(C)C[C@H](CO)Nc1nc(C[C@H](C)c2ccnc(F)c2)nc(NS(C)(=O)=O)n1 (single isomer, unassigned) [Example 90, N-(4-((S*)-2-(2-Fluoropyridin-4-yl)propyl)-6-(((R)-1-hydroxy-4-methylpentan-2-yl)amino)-1,3,5-triazin-2-yl)methanesulfonamide] | 1.7
10 | Cc1cc(C(C)Cc2nc(N[C@@H](CO)CC(C)C)nc(NS(C)(=O)=O)n2)ccn1 (stereo partly drawn) [Example 94, N-(4-(((R)-1-Hydroxy-4-methylpentan-2-yl)amino)-6-(2-(2-methylpyridin-4-yl)propyl)-1,3,5-triazin-2-yl)methanesulfonamide] | 0.102
11 | CC(C)C[C@H](CO)Nc1nc(CC(C)c2ccc(N=S(C)(C)=O)cc2)nc(NS(C)(=O)=O)n1 (stereo partly drawn) [Example 63, N-(4-(2-(4-((Dimethyl(oxo)-λ^6-sulfaneylidene)amino)phenyl)propyl)-6-(((R)-1-hydroxy-4-methylpentan-2-yl)amino)-1,3,5-triazin-2-yl)methanesulfonamide] | 0.114
12 | Cc1ccc(C(C)Cc2nc(N[C@@H](CO)CC(C)C)nc(NS(C)(=O)=O)n2)cc1F (stereo partly drawn) [Example 56, N-(4-(2-(3-Fluoro-4-methylphenyl)propyl)-6-(((R)-1-hydroxy-4-methylpentan-2-yl)amino)-1,3,5-triazin-2-yl)methanesulfonamide] | 0.204
13 | CC[C@H](Cc1nc(N[C@@H](CO)CC(C)C)nc(NS(C)(=O)=O)n1)c1cccc(F)c1F (single isomer, unassigned) [Example 47, N-(4-((R*)-2-(2,3-Difluorophenyl)butyl)-6-(((R)-1-hydroxy-4-methylpentan-2-yl)amino)-1,3,5-triazin-2-yl)methanesulfonamide] | 0.063
14 | CC(C)C[C@H](CO)Nc1nc(C[C@@H](C)c2c(F)cc(F)cc2F)nc(NS(C)(=O)=O)n1 (single isomer, unassigned) [Example 40, N-(4-(((R)-1-Hydroxy-4-methylpentan-2-yl)amino)-6-((R*)-2-(2,4,6-trifluorophenyl)propyl)-1,3,5-triazin-2-yl)methanesulfonamide] | 0.065
15 | CC(C)C[C@H](CO)Nc1nc(C[C@H](C)c2ccc(F)c(Cl)c2)nc(NS(C)(=O)=O)n1 (single isomer, unassigned) [Example 65, N-(4-((S*)-2-(3-Chloro-4-fluorophenyl)propyl)-6-(((R)-1-hydroxy-4-methylpentan-2-yl)amino)-1,3,5-triazin-2-yl)methanesulfonamide] | 4.2
16 | CC(C)C[C@H](CO)Nc1nc(CC(C)c2cc(O)c3c(c2)CCCC3)nc(NS(C)(=O)=O)n1 (some centres unmarked) [Example 104] | 0.038
17 | CC(C)C[C@H](CO)Nc1nc(C[C@@H](C)c2cc(F)ccc2F)nc(NS(C)(=O)=O)n1 (single isomer, unassigned) [Example 24, N-(4-((R*)-2-(2,5-Difluorophenyl)propyl)-6-(((R)-1-hydroxy-4-methylpentan-2-yl)amino)-1,3,5-triazin-2-yl)methanesulfonamide] | 0.078
18 | CC(C)C[C@H](CO)Nc1nc(CC(C)c2ccc(CC#N)cc2)nc(NS(C)(=O)=O)n1 (stereo partly drawn) [Example 55, N-(4-(2-(4-(Cyanomethyl)phenyl)propyl)-6-(((R)-1-hydroxy-4-methylpentan-2-yl)amino)-1,3,5-triazin-2-yl)methanesulfonamide] | 0.139

Further compounds by falling IC50, results first:

Row | IC50 [µM] | SMILES
19 | 2.71 | CC(C)C[C@H](CO)Nc1nc(CC(C)c2cccc(C3(O)CC3)c2)nc(NS(C)(=O)=O)n1 (stereo partly drawn) [Example 158, N-(4-(((R)-1-Hydroxy-4-methylpentan-2-yl)amino)-6-(2-(3-(1-hydroxycyclopropyl)phenyl)propyl)-1,3,5-triazin-2-yl)methanesulfonamide]
20 | 0.925 | CC(C)C[C@H](CO)Nc1nc(CC(C)c2ccc(C(F)(F)F)cc2)nc(NS(C)(=O)=O)n1 (stereo partly drawn) [Example 74, N-(4-(((R)-1-Hydroxy-4-methylpentan-2-yl)amino)-6-(2-(4-(trifluoromethyl)phenyl)propyl)-1,3,5-triazin-2-yl)methanesulfonamide]
21 | 0.504 | CC(C)C[C@H](CO)Nc1nc(C[C@@H](C)c2cc(F)c(F)cc2F)nc(NS(C)(=O)=O)n1 (single isomer, unassigned) [Example 36, N-(4-(((R)-1-Hydroxy-4-methylpentan-2-yl)amino)-6-((R*)-2-(2,4,5-trifluorophenyl)propyl)-1,3,5-triazin-2-yl)methanesulfonamide]
22 | 0.493 | CC(C)C[C@H](CO)Nc1nc(CC(c2ccccc2)C(F)(F)F)nc(NS(C)(=O)=O)n1 (stereo partly drawn) [Example 151, N-(4-(((R)-1-Hydroxy-4-methylpentan-2-yl)amino)-6-(3,3,3-trifluoro-2-phenylpropyl)-1,3,5-triazin-2-yl)methanesulfonamide]
23 | 0.35 | COc1c(F)cccc1C(C)Cc1nc(N[C@@H](CO)CC(C)C)nc(NS(C)(=O)=O)n1 (stereo partly drawn) [Example 160, N-(4-(2-(3-Fluoro-2-methoxyphenyl)propyl)-6-(((R)-1-hydroxy-4-methylpentan-2-yl)amino)-1,3,5-triazin-2-yl)methanesulfonamide]
24 | 0.31 | CCOc1ccc(C(C)Cc2nc(N[C@@H](CO)CC(C)C)nc(NS(C)(=O)=O)n2)cn1 (stereo partly drawn) [Example 167, N-(4-(2-(6-Ethoxypyridin-3-yl)propyl)-6-(((R)-1-hydroxy-4-methylpentan-2-yl)amino)-1,3,5-triazin-2-yl)methanesulfonamide]
25 | 0.264 | CC(C)C[C@H](CO)Nc1nc(CC(C)c2ccc(OC(C)C)nc2)nc(NS(C)(=O)=O)n1 (stereo partly drawn) [Example 159, N-(4-(((R)-1-Hydroxy-4-methylpentan-2-yl)amino)-6-(2-(6-isopropoxypyridin-3-yl)propyl)-1,3,5-triazin-2-yl)methanesulfonamide]
26 | 0.23 | CNC(=O)c1ccc(C(C)Cc2nc(N[C@@H](CO)CC(C)C)nc(NS(C)(=O)=O)n2)cc1F (stereo partly drawn) [Example 120, 2-Fluoro-4-(1-(4-(((R)-1-hydroxy-4-methylpentan-2-yl)amino)-6-(methylsulfonamido)-1,3,5-triazin-2-yl)propan-2-yl)-N-methylbenzamide]
27 | 0.209 | CC(C)C[C@H](CO)Nc1nc(CC(C)c2c[nH]c3ncccc23)nc(NS(C)(=O)=O)n1 (stereo partly drawn) [Example 93, N-(4-(2-(1H-Pyrrolo[2,3-b]pyridin-3-yl)propyl)-6-(((R)-1-hydroxy-4-methylpentan-2-yl)amino)-1,3,5-triazin-2-yl)methanesulfonamide]
28 | 0.16 | CC(C)C[C@H](CO)Nc1nc(CC(C)c2ccc(OCCN3CCOCC3)cc2)nc(NS(C)(=O)=O)n1 (stereo partly drawn) [Example 115, N-(4-(((R)-1-Hydroxy-4-methylpentan-2-yl)amino)-6-(2-(4-(2-morpholinoethoxy)phenyl)propyl)-1,3,5-triazin-2-yl)methanesulfonamide]
29 | 0.15 | CC(C)C[C@H](CO)Nc1nc(CC(C)c2ccc(N3CCOCC3=O)cc2)nc(NS(C)(=O)=O)n1 (stereo partly drawn) [Example 118, N-(4-(((R)-1-Hydroxy-4-methylpentan-2-yl)amino)-6-(2-(4-(3-oxomorpholino)phenyl)propyl)-1,3,5-triazin-2-yl)methanesulfonamide]
